Like-named read-outs stand apart in the source and are kept apart here.
Experiments:
Zein protein [1] = details: stated as known for comparison compounds; cited from earlier work
[2] = pH stability of SCMI solutions over time; assay type: physicochemical
Procedure: (§1) The pH values were read using a standard electrode pH meter (Fisher Accument XL-25). The electrode was place in the composition (no further dilution) and the pH recorded.
In a preliminary test 10 wt % solutions of SCMI, adjusted to have initial pH values respectively of 4.5, 5.5, 6.5, 7.5, 8.5 and 9.5, each held at 48.9° C. for an extended period of days, were tested for their pH stability over the extended period. The pH testing was as described above.

[3] = Stability of SCMI in aqueous solution (amount of SCMI present over time); assay type: physicochemical; details: 10 wt % aqueous solutions, initial pH 4.5, 5.5, 6.5, 7.5, 8.5 and 9.5, held at 48.9° C., 30 days
Procedure: In a preliminary test the stability of SCMI in 10 wt % aqueous solutions adjusted to have initial pH values respectively of 4.5, 5.5, 6.5, 7.5, 8.5 and 9.5, each held at 48.9° C. for an extended period of days, were tested for the amount of SCMI present over the test period.
as §1

[4] = Simple solubility tests in deionised water; assay type: physicochemical
Zein protein [5] = test: Zein protocol in-vitro skin irritancy test; details: FIG. 3, surfactant solution 2 wt %, 1 hour at 35° C.
From the text: (§2) The Zein protocol is an in-vitro test to measure skin irritancy of formulations. The method makes use of the correlation between binding ability of surfactants to proteins and the damage the surfactant causes to the skin. […] Zein protein, an insoluble protein extracted from corn kernel, is used as a model for epidermal protein and the solubility of the Zein protein in surfactant solutions is believed to be a reliable guide for the skin irritancy caused by the surfactant. The test involves establishing the amount of Zein protein which can be solubilised by surfactant. 5 g of Zein protein may be dispersed in 40 cm^3 of surfactant solution (at 2 wt % concentration). The mixture is shaken for 1 hour at 35° C., and immediately centrifuged to remove any non-solubilised Zein. The amount solubilised is estimated from the solution nitrogen content using micro-Kjeldahl method (making allowance for any nitrogen in the compound tested).

Zein protein [6] = tested on: Zein protein
From the text: as §2

Q: With sodium cocoyl isethionate [SCI] as the substance, how does the “skin irritancy, known” value (Zein protein [1]) read?
A: The value was “low irritancy”.

Q: What does the source list for sodium cocoylmethylisethionate [SCMI]?
A: pH change of sample held at highest pH value ([2]; 10 wt % solution, initial pH 9.5, 48.9° C., first few days): small pH reduction; pH values from Day 0 to Day 30 ([2]; 10 wt % solutions, initial pH 4.5 to 9.5, held at 48.9° C., 30 days): substantially unchanged; percentage of SCMI present, Day 0 to Day 30 [3]: does not change; appearance of 10 wt % in deionised water (solubility test) [4]: clear solution; skin irritancy (Zein protocol) (Zein protein [5]): low irritancy

Q: Which “skin irritancy, known” value (Zein protein [1]) does the source give for sodium laureth sulfate [SLES] here?
A: Its value is “significant irritancy”.

Q: For sodium lauroylmethylisethionate [SLMI], which “skin irritancy (Zein protocol)” value (Zein protein [6]) is on record?
A: The value was “low irritancy”.

Reference: patent publication US10265257B2, “Personal care composition” (Innospec Limited, priority 2007, dated 2019)
